Assay results reported in ChEMBL document CHEMBL3885881, “DrugMatrix”.

Organism: Rattus norvegicus
Assay: DrugMatrix - Regimen: Daily Repeat
Format: toxicity, organism-based, Sprague-Dawley
Parameters: regimen Daily Repeat, gender Male, age 6-8 weeks
Settings: in vivo, po, route oral GAVAGE, vehicle .5 % CMC; for ABSOLUTE BASOPHIL / ABSOLUTE EOSINOPHIL / ABSOLUTE LYMPHOCYTE / ABSOLUTE MONOCYTE / ABSOLUTE SEGMENTED NEUTROPHIL / BASOPHIL / EOSINOPHIL / ERYTHROCYTE COUNT / HEMATOCRIT / HEMOGLOBIN / LEUKOCYTE COUNT / LYMPHOCYTE / MEAN CORPUSCULAR HEMOGLOBIN / MEAN CORPUSCULAR HEMOGLOBIN CONCENTRATION / MEAN CORPUSCULAR VOLUME / MONOCYTE / NEUTROPHIL / NUCLEATED RED BLOOD CELLS / PLATELET COUNT: tissue Blood; for ALANINE AMINOTRANSFERASE / ALBUMIN / ALKALINE PHOSPHATASE / ASPARTATE AMINOTRANSFERASE / BLOOD UREA NITROGEN / CARBON DIOXIDE / CHLORIDE / CHOLESTEROL / CREATINE PHOSPHOKINASE / CREATININE / GLUCOSE / LACTATE DEHYDROGENASE / LIPASE / PHOSPHORUS / POTASSIUM / SODIUM / TOTAL BILIRUBIN / TOTAL PROTEIN / URIC ACID: tissue Plasma
[1] = 10 mg/kg, 72 h, dose level Low, time 3 day
[2] = 10 mg/kg, 120 h, dose level Low, time 5 day
[3] = 1500 mg/kg, 72 h, dose level High, time 3 day
[4] = 1500 mg/kg, 120 h, dose level High, time 5 day

With `CCOC(=O)[C@H](CCc1ccccc1)N[C@@H](C)C(=O)N1CCC[C@H]1C(=O)O` the “ABSOLUTE BASOPHIL” value [1] was 0 CELLS/uL, the “ABSOLUTE EOSINOPHIL” value [1] was 88 CELLS/uL and the “ABSOLUTE LYMPHOCYTE” value [1] was 12760.67 CELLS/uL. For the same molecule, the “ABSOLUTE MONOCYTE” value [1] was 130 CELLS/uL, the “ABSOLUTE SEGMENTED NEUTROPHIL” value [1] was 688 CELLS/uL and the BASOPHIL [1] was 0%. The EOSINOPHIL [1] was 0.67%, the “ERYTHROCYTE COUNT” value [1] was 5.43 x10E6/uL and the HEMATOCRIT [1] was 32.83%. For the same molecule, the HEMOGLOBIN [1] was 13.1 G/DL, the “LEUKOCYTE COUNT” value [1] was 13.67 x10E3/uL and the LYMPHOCYTE [1] was 93.33%. The “MEAN CORPUSCULAR HEMOGLOBIN” value [1] was 24.13 pg, the “MEAN CORPUSCULAR HEMOGLOBIN CONCENTRATION” value [1] was 39.87 G/DL and the “MEAN CORPUSCULAR VOLUME” value [1] was 60.53 fL. The MONOCYTE [1] was 1%, the NEUTROPHIL [1] was 5% and the “NUCLEATED RED BLOOD CELLS” value [1] was 0.33 /100WBC. For the same molecule, the “PLATELET COUNT” value [1] was 1331.67 x10E3/uL, the “ALANINE AMINOTRANSFERASE” value [1] was 46 u/L and the ALBUMIN [1] was 4.5 G/DL. The “ALKALINE PHOSPHATASE” value [1] was 398 u/L, the “ASPARTATE AMINOTRANSFERASE” value [1] was 79 u/L and the “BLOOD UREA NITROGEN” value [1] was 17.67 mg/dL. The “CARBON DIOXIDE” value [1] was 28.33 mmol/L, the CHLORIDE [1] was 98 MEQ/L and the CHOLESTEROL [1] was 60.33 mg/dL. The “CREATINE PHOSPHOKINASE” value [1] was 181.67 u/L, the CREATININE [1] was 0.17 mg/dL and the GLUCOSE [1] was 149.33 mg/dL. For the same molecule, the “LACTATE DEHYDROGENASE” value [1] was 115.33 u/L, the LIPASE [1] was 9.67 u/L and the PHOSPHORUS [1] was 11.47 mg/dL. The POTASSIUM [1] was 6.99 MEQ/L, the SODIUM [1] was 142.87 MEQ/L and the “TOTAL BILIRUBIN” value [1] was 0.23 mg/dL. The “TOTAL PROTEIN” value [1] was 6.13 G/DL, the “URIC ACID” value [1] was 1.37 mg/dL and the “ABSOLUTE BASOPHIL” value [2] was 0 CELLS/uL. The “ABSOLUTE EOSINOPHIL” value [2] was 28.33 CELLS/uL, the “ABSOLUTE LYMPHOCYTE” value [2] was 10805 CELLS/uL and the “ABSOLUTE MONOCYTE” value [2] was 28.33 CELLS/uL. For the same molecule, the “ABSOLUTE SEGMENTED NEUTROPHIL” value [2] was 738.33 CELLS/uL, the BASOPHIL [2] was 0% and the EOSINOPHIL [2] was 0.33%. The “ERYTHROCYTE COUNT” value [2] was 5.56 x10E6/uL, the HEMATOCRIT [2] was 34.6% and the HEMOGLOBIN [2] was 13.37 G/DL. The “LEUKOCYTE COUNT” value [2] was 11.6 x10E3/uL, the LYMPHOCYTE [2] was 93% and the “MEAN CORPUSCULAR HEMOGLOBIN” value [2] was 24.03 pg. For the same molecule, the “MEAN CORPUSCULAR HEMOGLOBIN CONCENTRATION” value [2] was 38.63 G/DL, the “MEAN CORPUSCULAR VOLUME” value [2] was 62.23 fL and the MONOCYTE [2] was 0.33%. For the same molecule, the NEUTROPHIL [2] was 6.33%, the “NUCLEATED RED BLOOD CELLS” value [2] was 0 /100WBC and the “PLATELET COUNT” value [2] was 1173.33 x10E3/uL. The “ALANINE AMINOTRANSFERASE” value [2] was 49.33 u/L, the ALBUMIN [2] was 4.27 G/DL and the “ALKALINE PHOSPHATASE” value [2] was 405.67 u/L. For the same molecule, the “ASPARTATE AMINOTRANSFERASE” value [2] was 79.33 u/L, the “BLOOD UREA NITROGEN” value [2] was 17.33 mg/dL and the “CARBON DIOXIDE” value [2] was 26.33 mmol/L. For the same molecule, the CHLORIDE [2] was 102.33 MEQ/L, the CHOLESTEROL [2] was 51.67 mg/dL and the “CREATINE PHOSPHOKINASE” value [2] was 399 u/L. For the same molecule, the CREATININE [2] was 0.17 mg/dL, the GLUCOSE [2] was 175 mg/dL and the “LACTATE DEHYDROGENASE” value [2] was 121.67 u/L. It also gave an LIPASE [2] of 9 u/L, a PHOSPHORUS [2] of 11.1 mg/dL and a POTASSIUM [2] of 6.79 MEQ/L. The SODIUM [2] was 142.87 MEQ/L, the “TOTAL BILIRUBIN” value [2] was 0.23 mg/dL and the “TOTAL PROTEIN” value [2] was 6.07 G/DL. The “URIC ACID” value [2] was 1.2 mg/dL, the “ABSOLUTE BASOPHIL” value [3] was 0 CELLS/uL and the “ABSOLUTE EOSINOPHIL” value [3] was 63.67 CELLS/uL. The “ABSOLUTE LYMPHOCYTE” value [3] was 17047.67 CELLS/uL, the “ABSOLUTE MONOCYTE” value [3] was 127.33 CELLS/uL and the “ABSOLUTE SEGMENTED NEUTROPHIL” value [3] was 1494.67 CELLS/uL. For the same molecule, the BASOPHIL [3] was 0%, the EOSINOPHIL [3] was 0.33% and the “ERYTHROCYTE COUNT” value [3] was 5.46 x10E6/uL. For the same molecule, the HEMATOCRIT [3] was 34.33%, the HEMOGLOBIN [3] was 13.63 G/DL and the “LEUKOCYTE COUNT” value [3] was 18.73 x10E3/uL. The LYMPHOCYTE [3] was 91%, the “MEAN CORPUSCULAR HEMOGLOBIN” value [3] was 24.93 pg and the “MEAN CORPUSCULAR HEMOGLOBIN CONCENTRATION” value [3] was 39.7 G/DL. The “MEAN CORPUSCULAR VOLUME” value [3] was 62.93 fL, the MONOCYTE [3] was 0.67% and the NEUTROPHIL [3] was 8%. For the same molecule, the “NUCLEATED RED BLOOD CELLS” value [3] was 1 /100WBC, the “PLATELET COUNT” value [3] was 1237.33 x10E3/uL and the “ALANINE AMINOTRANSFERASE” value [3] was 41.33 u/L. The ALBUMIN [3] was 4.27 G/DL, the “ALKALINE PHOSPHATASE” value [3] was 390.33 u/L and the “ASPARTATE AMINOTRANSFERASE” value [3] was 57.33 u/L. For the same molecule, the “BLOOD UREA NITROGEN” value [3] was 34.67 mg/dL, the “CARBON DIOXIDE” value [3] was 32.33 mmol/L and the CHLORIDE [3] was 101.67 MEQ/L. For the same molecule, the CHOLESTEROL [3] was 58.33 mg/dL, the “CREATINE PHOSPHOKINASE” value [3] was 191.33 u/L and the CREATININE [3] was 0.28 mg/dL. The GLUCOSE [3] was 143 mg/dL, the “LACTATE DEHYDROGENASE” value [3] was 90.33 u/L and the LIPASE [3] was 9 u/L. It also gave a PHOSPHORUS [3] of 12.8 mg/dL, a POTASSIUM [3] of 8.04 MEQ/L and an SODIUM [3] of 142.4 MEQ/L. For the same molecule, the “TOTAL BILIRUBIN” value [3] was 0.27 mg/dL, the “TOTAL PROTEIN” value [3] was 6 G/DL and the “URIC ACID” value [3] was 1.53 mg/dL. For the same molecule, the “ABSOLUTE BASOPHIL” value [4] was 0 CELLS/uL, the “ABSOLUTE EOSINOPHIL” value [4] was 0 CELLS/uL and the “ABSOLUTE LYMPHOCYTE” value [4] was 15341.33 CELLS/uL. For the same molecule, the “ABSOLUTE MONOCYTE” value [4] was 266 CELLS/uL, the “ABSOLUTE SEGMENTED NEUTROPHIL” value [4] was 992.67 CELLS/uL and the BASOPHIL [4] was 0%. For the same molecule, the EOSINOPHIL [4] was 0%, the “ERYTHROCYTE COUNT” value [4] was 6.24 x10E6/uL and the HEMATOCRIT [4] was 36.97%. The HEMOGLOBIN [4] was 15.13 G/DL, the “LEUKOCYTE COUNT” value [4] was 16.6 x10E3/uL and the LYMPHOCYTE [4] was 92.33%. The “MEAN CORPUSCULAR HEMOGLOBIN” value [4] was 24.23 pg, the “MEAN CORPUSCULAR HEMOGLOBIN CONCENTRATION” value [4] was 40.93 G/DL and the “MEAN CORPUSCULAR VOLUME” value [4] was 59.27 fL. The MONOCYTE [4] was 1.67%, the NEUTROPHIL [4] was 6% and the “NUCLEATED RED BLOOD CELLS” value [4] was 0.33 /100WBC. For the same molecule, the “PLATELET COUNT” value [4] was 1399.33 x10E3/uL, the “ALANINE AMINOTRANSFERASE” value [4] was 39.33 u/L and the ALBUMIN [4] was 4.47 G/DL. The “ALKALINE PHOSPHATASE” value [4] was 328.67 u/L, the “ASPARTATE AMINOTRANSFERASE” value [4] was 73 u/L and the “BLOOD UREA NITROGEN” value [4] was 41 mg/dL. For the same molecule, the “CARBON DIOXIDE” value [4] was 25.33 mmol/L, the CHLORIDE [4] was 101.67 MEQ/L and the CHOLESTEROL [4] was 48.67 mg/dL. The “CREATINE PHOSPHOKINASE” value [4] was 295.67 u/L, the CREATININE [4] was 0.37 mg/dL and the GLUCOSE [4] was 149 mg/dL. The “LACTATE DEHYDROGENASE” value [4] was 268.33 u/L, the LIPASE [4] was 9 u/L and the PHOSPHORUS [4] was 10.67 mg/dL. For the same molecule, the POTASSIUM [4] was 9.54 MEQ/L, the SODIUM [4] was 140.13 MEQ/L and the “TOTAL BILIRUBIN” value [4] was 0.13 mg/dL. The “URIC ACID” value [4] was 1.4 mg/dL.
